Assay results from US20250360205A1, “NOD1 MODULATORS AND USES THEREOF” (Academia Sinica, priority 2022, published 2025).

Target: T1, NOD1 (Homo sapiens, UniProt Q9Y239)
T1 construct: host or cells: HEK-Blue hNOD1 cells (HEK293-derived, with NF-κB-inducible SEAP reporter)
T1 sequence (Q9Y239 1-953): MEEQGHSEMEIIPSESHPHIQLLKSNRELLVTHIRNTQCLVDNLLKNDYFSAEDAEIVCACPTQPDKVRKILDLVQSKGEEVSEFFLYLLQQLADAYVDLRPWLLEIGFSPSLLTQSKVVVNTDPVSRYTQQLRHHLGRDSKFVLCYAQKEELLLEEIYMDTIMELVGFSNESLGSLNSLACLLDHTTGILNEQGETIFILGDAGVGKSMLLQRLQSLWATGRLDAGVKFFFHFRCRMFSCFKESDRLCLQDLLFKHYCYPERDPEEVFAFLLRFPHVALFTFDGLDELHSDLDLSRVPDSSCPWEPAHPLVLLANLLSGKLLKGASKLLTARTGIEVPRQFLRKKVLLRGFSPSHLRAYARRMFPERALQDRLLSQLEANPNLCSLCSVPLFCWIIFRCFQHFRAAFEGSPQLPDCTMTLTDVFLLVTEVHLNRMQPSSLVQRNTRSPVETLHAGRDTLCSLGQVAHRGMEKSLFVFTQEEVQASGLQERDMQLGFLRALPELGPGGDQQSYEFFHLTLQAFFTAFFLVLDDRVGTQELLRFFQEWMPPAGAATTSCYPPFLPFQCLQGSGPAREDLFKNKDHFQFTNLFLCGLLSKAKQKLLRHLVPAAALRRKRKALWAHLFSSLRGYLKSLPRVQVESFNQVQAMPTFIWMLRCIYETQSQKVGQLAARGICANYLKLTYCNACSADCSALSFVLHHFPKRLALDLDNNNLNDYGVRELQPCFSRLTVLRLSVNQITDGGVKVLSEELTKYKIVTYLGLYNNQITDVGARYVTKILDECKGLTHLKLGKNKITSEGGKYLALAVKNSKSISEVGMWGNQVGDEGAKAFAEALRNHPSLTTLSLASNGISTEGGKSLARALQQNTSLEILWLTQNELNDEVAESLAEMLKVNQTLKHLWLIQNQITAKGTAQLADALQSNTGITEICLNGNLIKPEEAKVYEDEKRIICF
Assay: NOD1-induced NF-κB activation assay (SEAP reporter) in HEK-Blue hNOD1 cells
Assay type: cell-based
Settings: 16 h; for NOD1 stimulation potency (NF-κB activity): 0.1 μM, FIG. 1, relative to iE-DAP, C12-iE-DAP, Tri-DAP
Method: Measurement of NOD1-induced NF-κB Activation Assay
HEK-Blue™ hNOD1 Cells (Invivogen; San Diego, CA, U.S.) were cultured in accordance with the manufacturer's instructions. HEK-Blue™ hNOD1 Cells was assayed for NF-κB transcriptional activity changes upon incubation (3.6×10^5 cells/mL) with iE-DAP, C12-iE-DAP, Tri-DAP (Invivogen, San Diego, CA, U.S.) and other NOD1 agonistic compounds (0.1-10 μM) for 16 h. Secreted embryonic alkaline phosphatase (SEAP) activity was determined in the supernatant in accordance with the manufacturer's instructions. An amount of 20 μL of SEAP-inducer compound or negative control was added to 180 μL of cells in HEK-Blue™ detection medium and incubated at 37° C. for 16 h. Absorbance was measured on a SpectraMax M5 (Molecular Devices, Sunnyvale, CA, U.S.) at 640 nm.

fold increase of NF-κB activity (1 μM, FIGS. 2 and 3) | NOD1 stimulation potency (NF-κB activity) | SMILES
20 fold |  | C[C@H](N)C(=O)N[C@H](CCC(=O)N[C@H](CO)CCC[C@@H](N)C(=O)O)C(=O)O [Compound 6]
 | decreased dramatically | COc1ccc(CC(=O)NC(C)C(=O)NC(CCC(=O)NC(CO)CCCC(N)C(=O)O)C(=O)O)cc1 (stereo not drawn) [Compound 14f]
 | decreased dramatically | CC(NC(=O)Cc1ccc(-c2ccccc2)cc1)C(=O)NC(CCC(=O)NC(CO)CCCC(N)C(=O)O)C(=O)O (stereo not drawn) [Compound 14h]
